These results are taken from publication PMC5589878, “Development of Fluorescent Probes that Target Serotonin 5-HT2B Receptors” (Scientific Reports, 2017).

Like-named read-outs stand apart in the source and are kept apart here.

One data set concerns the target T1, human 5-HT2C receptors (Homo sapiens, UniProt P28335).
T1 construct: expressed in transfected cells; host or cells: HeLa-5-HT2C cells (membranes)
T1 sequence (P28335 33-458): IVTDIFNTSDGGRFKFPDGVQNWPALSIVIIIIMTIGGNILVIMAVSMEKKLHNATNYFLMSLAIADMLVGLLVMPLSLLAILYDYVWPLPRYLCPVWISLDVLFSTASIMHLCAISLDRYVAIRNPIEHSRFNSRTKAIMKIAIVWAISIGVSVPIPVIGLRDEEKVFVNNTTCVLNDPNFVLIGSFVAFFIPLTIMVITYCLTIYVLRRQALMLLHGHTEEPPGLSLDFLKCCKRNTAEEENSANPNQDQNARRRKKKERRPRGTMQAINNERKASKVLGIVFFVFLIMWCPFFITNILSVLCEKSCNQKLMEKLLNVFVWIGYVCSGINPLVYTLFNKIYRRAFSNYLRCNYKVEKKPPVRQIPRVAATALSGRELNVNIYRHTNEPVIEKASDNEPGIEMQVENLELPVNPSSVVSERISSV
Description: Radioligand competition binding assay at human 5-HT2C receptors.

The target in data set [1] is T2, 5-HT2B receptors (Homo sapiens, UniProt P41595). Description: Functional assay of IPs accumulation at human 5-HT2B receptors. It is filed as cell-based. As to the method: After 24 h, growth medium was replaced by serum-free medium containing 10 μCi/mL [^3H]myo-inositol (20.3 Ci/mmol, Perkin-Elmer) for 24 h. […] After the incubation time, assay buffer was discarded and 200 μL of 100 mM formic acid was added to the cells for 30 min at 4 °C and 20 μL of the lysate were transferred to a flexiplate plate (Perkin-Elmer, Waltham, MA, USA) together with 80 μL of a solution of RNA Binding YSi SPA Beads (Perkin-Elmer, Waltham, MA, USA) to measure accumulation of [^3H]IPs (IP1,IP2, and IP3, collectively referred to as IPs).
T2 sequence (P41595 whole entry): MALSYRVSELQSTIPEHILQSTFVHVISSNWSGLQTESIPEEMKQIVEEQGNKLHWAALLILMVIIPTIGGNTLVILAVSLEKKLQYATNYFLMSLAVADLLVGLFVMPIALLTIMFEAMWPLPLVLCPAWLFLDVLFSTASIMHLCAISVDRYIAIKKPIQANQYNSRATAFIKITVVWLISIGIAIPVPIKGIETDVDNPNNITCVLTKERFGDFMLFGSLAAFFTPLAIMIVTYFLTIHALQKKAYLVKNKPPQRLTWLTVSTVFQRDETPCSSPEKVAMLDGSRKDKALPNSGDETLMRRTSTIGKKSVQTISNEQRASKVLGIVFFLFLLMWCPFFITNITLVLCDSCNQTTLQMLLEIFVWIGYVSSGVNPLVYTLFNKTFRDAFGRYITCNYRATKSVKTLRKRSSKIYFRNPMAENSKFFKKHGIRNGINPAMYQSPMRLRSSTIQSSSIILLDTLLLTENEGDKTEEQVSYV

A short description of data set [2]: Absorption and emission spectra (photophysical properties). It is filed as physicochemical. To be noted: 10 μM solutions. As to the method: The absorption and emission spectra of the fluorescent 5-HT2 ligands (10 and 12) were determined on 10 μM solutions. The most relevant fluorescent properties are collected in Fig. 5. All of the synthesized derivatives emitted fluorescence in the visible region of the spectrum, with selected fluorescent tags (Fig. 4) providing distinctive properties and excitation wavelengths. The excitation wavelengths varied from 305 to 555 nm, whereas those for emission varied from 398 to 580 nm.

For data set [3], the target named is T2, 5-HT2B receptors. Description: Radioligand competition binding assay at human 5-HT2B receptors.
Another data set has as its target 5-HT2A receptors (Homo sapiens, UniProt P28223). Description: Radioligand competition binding assay at human 5-HT2A receptors. The arrangement: expressed in transfected cells; host or cells: CHO-FA4-5-HT2A cells (membranes).
The mark [4] stands for this setting: [3H]Mesulergine, membranes from HeLa-5-HT2C cells.
Setting [5] is: [3H]Ketanserin, membranes from CHO-FA4-5-HT2A cells, read-out: Binding at 5-HT2 receptors Ki 5-HT2A.
[6] abbreviates: [3H]Mesulergine, membranes from HeLa-5-HT2C cells, read-out: Binding at 5-HT2 receptors Ki 5-HT2C.

5-HT2A receptors, sequence (P28223 whole entry): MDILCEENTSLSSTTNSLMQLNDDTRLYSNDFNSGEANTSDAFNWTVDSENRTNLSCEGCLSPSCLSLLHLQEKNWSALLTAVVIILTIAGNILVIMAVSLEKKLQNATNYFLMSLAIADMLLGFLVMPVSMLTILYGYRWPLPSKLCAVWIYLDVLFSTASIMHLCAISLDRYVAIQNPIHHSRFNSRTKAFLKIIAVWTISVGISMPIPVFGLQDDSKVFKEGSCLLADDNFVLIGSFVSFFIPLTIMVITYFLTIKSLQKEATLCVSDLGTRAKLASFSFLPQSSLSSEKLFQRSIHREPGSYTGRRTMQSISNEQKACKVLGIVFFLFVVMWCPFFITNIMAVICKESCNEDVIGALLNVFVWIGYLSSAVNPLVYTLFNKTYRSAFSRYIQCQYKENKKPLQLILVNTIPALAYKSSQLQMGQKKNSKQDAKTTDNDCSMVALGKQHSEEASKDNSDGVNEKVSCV

As for `COC(=O)c1c(C(=O)OCCCNC(=O)CCCOc2cc(I)c(OC)cc2CC(C)N)c2cc(F)c(F)cc2c2cc(F)c(F)cc12` (stereo not shown) [12e, 9-(3-(4-(2-(2-aminopropyl)-5-iodo-4-methoxyphenoxy)butanamido)pro-pyl) 10-methyl 2,3,6,7-tetrafluorophenanthrene-9,10-dicarboxylate], the affinity on human 5-HT2C receptors corresponds to a Ki of 2280 nM. Besides, the concentration for a half-maximal effect (EC50) at 5-HT2B receptors [1] amounted to 9.45 nM. Besides, in data set [2], the “Δλ (Stokes shift)” value is 83 nm, the εmax is 18295 M⁻¹ cm⁻¹, the “λmax Abs” value came to 315 nm and the “λmax Em” value was 398 nm. The molecule further returned a Ki at 5-HT2B receptors [3] of 148 nM. This molecule displayed a Ki at 5-HT2A receptors of 2570 nM.
On to `COc1cc(CC(C)N)c(OCCCCCCC(=O)NCCCNS(=O)(=O)c2cccc3c(N(C)C)cccc23)cc1I` (stereo not shown) [10b, 7-(2-(2-aminopropyl)-5-iodo-4-methoxyphenoxy)-N-(3-((5-(dimethylami-no)naphthalene)-1-sulfonamido)propyl)heptanamide], for which the results for the Ki on human 5-HT2C receptors, on 5-HT2B receptors [3] and on 5-HT2A receptors were 295 nM, 167 nM and 41200 nM, respectively. Also, on 5-HT2B receptors [1], it took 245 nM to reach a half-maximal effect (EC50).
With `COc1cc(CC(C)N)c(OCCCC(=O)NCCCN2C(=O)c3c(c4ccccc4c4ccccc34)C2=O)cc1I` (stereo not shown) [12c, 4-(2-(2-aminopropyl)-5-iodo-4-methoxyphenoxy)-N-(3-(1,3-dioxo-1,3-dihydro-2H-dibenzo[e,g]isoindol-2-yl)propyl)butanamide], at human 5-HT2C receptors, the Ki stood at 616 nM. In addition, on 5-HT2B receptors [1], the midpoint of the response, the EC50, lay at 24.9 nM. In data set [2], the “Δλ (Stokes shift)” value is reported as 76 nm, the εmax came out at 2758 M⁻¹ cm⁻¹, the “λmax Abs” value is 390 nm and the “λmax Em” value stood at 466 nm. For the same molecule, the Ki at 5-HT2B receptors [3] was 86.9 nM. On 5-HT2A receptors, the affinity corresponds to a Ki of 5180 nM.
Consider “3-(2-(2-(2-(2-aminopropyl)-5-iodo-4-methoxyphenoxy)ethoxy)ethoxy)-N-(3-((5-(dimethylamino)naphthalene)-1-sulfonamido)propyl)propanamide [10d]”, for which the “Binding at 5-HT2 receptors % at 1 μM 5-HT2C” value on human 5-HT2C receptors (setting [4]) is reported as 3%. In addition, at 5-HT2A receptors (setting [5]), the Ki was determined as 13000 nM.
As for `COc1cc(CC(C)N)c(OCCCC(=O)NCCCNS(=O)(=O)c2cccc3c(N(C)C)cccc23)cc1I` (stereo not shown) [10a, 4-(2-(2-aminopropyl)-5-iodo-4-methoxyphenoxy)-N-(3-((5-(dimethyl-amino)naphthalene)-1-sulfonamido)propyl)butanamide], the Ki on human 5-HT2C receptors came out at 273 nM. Besides, the EC50 on 5-HT2B receptors [1] worked out at 89.1 nM. Also, in data set [2], the “Δλ (Stokes shift)” value turned out to be 147 nm, the εmax worked out at 2726 M⁻¹ cm⁻¹, the “λmax Abs” value worked out at 350 nm and the “λmax Em” value is 497 nm. For the same molecule, affinity on 5-HT2B receptors [3] was put at a Ki of 112 nM. For the same molecule, the affinity on 5-HT2A receptors corresponds to a Ki of 1710 nM.
The molecule `CCCCCCC(CCCCCC)N1C(=O)c2ccc3c4ccc5c6c(ccc(c7ccc(c2c37)C1=O)c64)C(=O)N(CCCNC(=O)CCCOc1cc(I)c(OC)cc1CC(C)N)C5=O` (stereo not shown) [12h, 4-(2-(2-aminopropyl)-5-iodo-4-methoxyphenoxy)-N-(3-(1,3,8,10-tetraoxo-9-(tridecan-7-yl)-3,8,9,10-tetrahydroanthra[2,1,9-def:6,5,10-d′e′f′]diisoquinolin-2(1H)-yl)propyl)butanamide] came in with a melting point of 169 to 171 °C. The Ki on human 5-HT2C receptors (setting [6]) was found to be 7990 nM. In data set [2], the “Δλ (Stokes shift)” value is listed as 70 nm, the εmax was determined as 27500 M⁻¹ cm⁻¹, the “λmax Abs” value is on record as 460 nm and the “λmax Em” value is 530 nm. Further, the Ki on 5-HT2B receptors [3] turned out to be 1410 nM. Besides, the Ki on 5-HT2A receptors (setting [5]) is 15000 nM.
In the case of `COc1cc(CC(C)N)c(OCCCCCCCCCCC(=O)NCCCNS(=O)(=O)c2cccc3c(N(C)C)cccc23)cc1I` (stereo not shown) [10c, 11-(2-(2-aminopropyl)-5-iodo-4-methoxyphenoxy)-N-(3-((5-(dimethyl-amino)naphthalene)-1-sulfonamido)propyl)undecanamide], the melting point was in the range of 171 to 173 °C. Moreover, the “Binding at 5-HT2 receptors % at 1 μM 5-HT2C” value at human 5-HT2C receptors (setting [4]) was determined as 1%. In addition, on 5-HT2B receptors [3], the Ki was 806 nM. For the same molecule, at 5-HT2A receptors (at 1 μM, [3H]Ketanserin, membranes from CHO-FA4-5-HT2A cells), the “Binding at 5-HT2 receptors % at 1 μM 5-HT2A” value was 2%.
In turn, `COc1cc(CC(C)N)c(OCCCC(=O)NCCCNc2ccc([N+](=O)[O-])c3nonc23)cc1I` (stereo not shown) [12b, 4-(2-(2-aminopropyl)-5-iodo-4-methoxyphenoxy)-N-(3-((7-nitroben-zo[c][1,2,5]oxadiazol-4-yl)amino)propyl)butanamide] gave a melting point of 158 to 160 °C. For the same molecule, the affinity at human 5-HT2C receptors corresponds to a Ki of 1810 nM. On 5-HT2B receptors [1], this molecule came in with an EC50 of 3.27 nM. In data set [2], the “Δλ (Stokes shift)” value was 69 nm, the εmax came to 23881 M⁻¹ cm⁻¹, the “λmax Abs” value was determined as 461 nm and the “λmax Em” value was found to be 530 nm. The same molecule displayed a Ki on 5-HT2B receptors [3] of 91 nM. Also, on 5-HT2B receptors [3] (over 5-HT2A and 5-HT2C, from binding Ki), the “selectivity for the 5-HT2B receptor subtype” value is no less than 20 fold. At 5-HT2A receptors, this molecule registered a Ki of 3310 nM.
Regarding `COC(=O)c1c(C(=O)OCCCNC(=O)CCCOc2cc(I)c(OC)cc2CC(C)N)c2cc3ccccc3cc2c2cc3ccccc3cc12` (stereo not shown) [12g, 6-(3-(4-(2-(2-aminopropyl)-5-iodo-4-methoxyphenoxy)butanamido)pro-pyl) 7-methyl pentaphene-6,7-dicarboxylate], the melting point was in the range of 150 to 152 °C. Moreover, the Ki at human 5-HT2C receptors (setting [6]) is 2280 nM. In data set [2], the “Δλ (Stokes shift)” value was found to be 123 nm, the εmax was found to be 9977 M⁻¹ cm⁻¹, the “λmax Abs” value was 375 nm and the “λmax Em” value stood at 498 nm. Moreover, the Ki on 5-HT2B receptors [3] was 283 nM. At 5-HT2A receptors (setting [5]), the Ki stood at 3700 nM.
For the molecule `COC(=O)c1c(C(=O)OCCCNC(=O)CCCOc2cc(I)c(OC)cc2CC(C)N)c2cc3c(cc2c2cc4c(cc12)CCC4)CCC3` (stereo not shown) [12f, 5-(3-(4-(2-(2-aminopropyl)-5-iodo-4-methoxyphenoxy)butanamido)pro-pyl)-6-methyl-1,2,3,8,9,10-hexahydrodicyclopenta[b,h]phenanthrene-5,6-dicarbo-xylate], affinity on human 5-HT2C receptors was put at a Ki of 1030 nM. This molecule also registered an EC50 at 5-HT2B receptors [1] of 47 nM. Further, in data set [2], the “Δλ (Stokes shift)” value is given as 119 nm, the εmax came to 12078 M⁻¹ cm⁻¹, the “λmax Abs” value is on record as 309 nm and the “λmax Em” value is 428 nm. The molecule further had a Ki at 5-HT2B receptors [3] of 136 nM. The Ki at 5-HT2A receptors amounted to 2320 nM.
Consider `COC(=O)c1c(C(=O)OCCCNC(=O)CCCOc2cc(I)c(OC)cc2CC(C)N)c2ccccc2c2ccccc12` (stereo not shown) [12d, 9-(3-(4-(2-(2-aminopropyl)-5-iodo-4-methoxyphenoxy)butanamido)pro-pyl)-10-methyl phenanthrene-9,10-dicarboxylate], for which the Ki at human 5-HT2C receptors worked out at 1100 nM. In addition, the EC50 on 5-HT2B receptors [1] is 25.6 nM. For the same molecule, in data set [2], the “Δλ (Stokes shift)” value was 98 nm, the εmax amounted to 6813 M⁻¹ cm⁻¹, the “λmax Abs” value was found to be 305 nm and the “λmax Em” value was 403 nm. At 5-HT2B receptors [3], affinity was put at a Ki of 140 nM. At 5-HT2A receptors, this molecule gave a Ki of 3980 nM.
